{"source": "patent US8691801B2", "about": "“Use of manzamine compounds in anti-cancer therapeutic regimens” (Florida Atlantic University Board of Trustees, priority 2006, dated 2014)", "key": {"AsPC-1 cells [1]": {"tested_on": "AsPC-1 cells", "procedure": "(§1) TRAIL induced apoptosis. 12,000 AsPC-1 cells were plated on a 96-well tissue culture plate at a volume of 200 μl/well, allowing for twelve replicate wells per treatment. Cells were allowed to adhere for 24 hours. At the end of this incubation, 100 μl of medium were removed from each test well and 100 μl of medium containing treatment were added. Treatment consisted of media alone, media with methanol, 10 μM Manzamine A or 20 μg/m1 U0126. The cells were then incubated for 48 hours at 37° C. and 5% CO2. After this incubation, half of the wells of each treatment were incubated with 100 ng/ml Super Killer TRAIL (Alexis, San Diego, Calif.) for 18 hours at 37° C. and 5% CO2. At the end of this incubation, 75 μl of a 5 mg/ml MTT solution were added to each well. The cells were then incubated for 3 hours at 37° C. The plates were centrifuged for 10 minutes at 800 rpm. The supernatant was removed and 200 μl acidified isopropyl alcohol (1:500 solution of hydrochloric acid to isopropanol) were added to each well. The plates were shaken for 15 minutes. The absorbencies of these solutions were measured at 570 nm with a plate reader (NOVOstar, BMG Labtech Inc., Durham, N.C.). The resulting absorbencies were plotted using Microsoft Excel. […]"}, "AsPC-1 cells [2]": {"tested_on": "AsPC-1 cells", "format": "cell-based", "source_text": "In Vitro Cell Invasion Assay. The invasiveness of AsPC-1 cells alone, treated with our test compounds or treated with U0126 as a positive control will be evaluated in 24-well transwell chambers, as described by Fu et al. “Effects of raf kinase inhibitor protein expression on suppression of prostate cancer metastasis”. […] Briefly, the upper and lower culture compartments of each well are separated by polycarbonate membranes (8-μm pore size). To determine baseline migration, 2.5×10^4 cells in 0.5 mL of complete medium containing 5% FBS are placed into the upper compartment of uncoated wells (BD Discovery Labware, San Diego, Calif.), and 0.75 mL of complete medium containing 10% FBS are placed into the lower compartment. In parallel, to assess the ability of the same cells to penetrate a collagen matrix, the experiment is repeated using upper compartments coated with 100 μg/cm^2 of collagen matrix (BD Discovery Labware, San Diego, Calif.). The transwell chambers are incubated for 24 hours at 37 ° C. in 95% air and 5% CO2. Cell penetration through the membrane is detected by staining the cells on the porous membrane with a Diff-Quik stain kit' observing under the microscopic and capturing images with a digital camera."}, "AsPC-1 cells [3]": {"tested_on": "AsPC-1 cells", "experiment": "TRAIL induced apoptosis (MTT readout)", "settings": "10 μM manzamine A, 48 hours, without TRAIL", "procedure": "as §1"}, "AsPC-1 cells [4]": {"tested_on": "AsPC-1 cells", "experiment": "Morphological changes (cell dissociation) induced in AsPC-1 cells", "format": "cell-based", "method": "Cell Culture Conditions for the AsPC-1 pancreatic adenocarcinoma cell line. AsPC-1, a pancreatic adenocarcinoma cell line, was obtained from ATCC, grown, aliquotted and frozen stocks were maintained in liquid nitrogen. Aliquots of the stock cells were thawed and grown in RPMI-1640 supplemented with 10% Fetal Bovine Serum, 0.11 mg/ml Sodium Pyruvate, 4.5 g/L D-glucose, 18 mM HEPES Buffer, 100 U/ml penicillin G sodium, 100 μg/ml streptomycin sulfate, 0.25 μg/ml amphotericin B, 2 mM L-glutamine and 50 μg/ml gentamicin (Complete RPMI). Cells were maintained in a humidified incubator at 37° C. and 5% CO2.\nAn observation was made that inhibiting the constitutive activation of MEK abrogates cell dissociation (Tan, X. et al., 2004 “Involvement of the mitogen-activated protein kinase kinase 2 in the induction of cell dissociation in pancreatic cancer” Int J Oncol 24(1):65-73), a precursor step in metastasis."}, "AsPC-1 cells [5]": {"tested_on": "AsPC-1 cells", "experiment": "Cell viability assay (MTT)", "format": "cell-based", "settings": "pancreatic cancer cells", "method": "Cell viability assays. A 3-[4,5-Dimethyl-2-thiazolyl]-2,5-diphenyl-2H-tetrazolium bromide (MTT) based assay was used to determine cell viability. […] Cells were allowed to adhere for 24 hours. […] Treatment consisted of 5 μM or 50 μM of Manzamine A, media alone, media with methanol, or 20 μg/ml U0126. […] After this incubation, 75 μl 5 mg/ml MTT were added to each well. […] The plates were shaken for 15 minutes. […] The resulting absorbencies were plotted using Microsoft Excel."}}, "note": "Like-named read-outs stand apart in the source and are kept apart here."}
{"smiles": "N#CC(=C(/N)Sc1ccccc1N)/C(C#N)=C(\\N)Sc1ccccc1N", "note": "[U0126, reference compound]", "values": [{"measurement": "cytotoxicity of treatment alone", "setting": "AsPC-1 cells [1]", "value": "induced some cytotoxicity"}, {"measurement": "prevention of cell migration", "setting": "AsPC-1 cells [2]", "value": "prevented cell migration"}]}
{"smiles": "O[C@]12C=C(c3nccc4c3[nH]c3ccccc34)[C@@H]3CCN(CCCC/C=C\\CC1)C[C@@]31CC3/C=C\\CCCCN3[C@H]12", "note": "(some centres unmarked) [Manzamine A, manzamine A]", "values": [{"measurement": "cytotoxicity of treatment alone", "setting": "AsPC-1 cells [3]", "value": "induced some cytotoxicity"}, {"measurement": "abrogation of cell dissociation", "setting": "AsPC-1 cells [4]; AsPC-1 cells treated 48 hours with 1.25, 2.5, 5, 10 μM Manzamine A, microscopy", "value": "caused abrogation of cell dissociation similar to that caused by pMEK inhibitors"}, {"measurement": "abrogation of cell dissociation, dose dependence", "setting": "AsPC-1 cells [4]; AsPC-1 cells, 48 hours, 5 and 10 μM dose compared with 1.25 and 2.5 μM", "value": "stronger at the 5 and 10 μM dose"}, {"measurement": "dose needed for similar effects relative to U0126", "setting": "AsPC-1 cells [4]; effects on cell dissociation, migration and TRAIL resistance, manzamine A vs U0126", "value": "a fifth of the dose needed for U0126"}, {"measurement": "prevention of cell migration", "setting": "AsPC-1 cells [2]; AsPC-1 cells treated 48 hours, 5 and 10 μM Manzamine A, transwell, collagen matrix", "value": "prevented cell migration similar to that caused by the pMEK inhibitor U0126"}, {"measurement": "cytotoxicity at small doses", "setting": "AsPC-1 cells [5]", "value": "little cytotoxicity"}]}
